According to patent publication US12673975B2, “Cyclic peptide, cell scaffold material, cell separating material, and medium” (FUJIFILM Corporation, priority 2019, dated 2026):
Starred links: 1 amine or outer side, 2 acyl side, 3 side chain; linkers in the order of their positions; H or OH if unused. Positions of bridges follow the written chain, without caps; N, C: chain ends. Non-standard residues stand in square brackets, D forms with d. Residues, ends and D or L forms follow the SMILES beside them. hTyr = N[C@@H](CCc1ccc(O)cc1)C(=O)O; hCys = N[C@@H](CCS)C(=O)O; hSer = N[C@@H](CCO)C(=O)O; Dab = NCC[C@H](N)C(=O)O; X2 = O=C(C[*:1])[*:2]

Legend:
[1] = target: human integrin αvβ5 (Homo sapiens, UniProt P06756+P18084); test: Evaluation of integrin binding property (surface plasmon resonance, Biacore 3000, immobilized cyclic peptide); details: SPR, 25° C., HEPES buffer with 5 mM magnesium chloride, integrin 30-1,000 nM; read-out: Performance evaluation: Binding activity (dissociation constant between the cyclic peptide and human integrin αvβ5)
human integrin αvβ5, sequence (P06756 31-1048): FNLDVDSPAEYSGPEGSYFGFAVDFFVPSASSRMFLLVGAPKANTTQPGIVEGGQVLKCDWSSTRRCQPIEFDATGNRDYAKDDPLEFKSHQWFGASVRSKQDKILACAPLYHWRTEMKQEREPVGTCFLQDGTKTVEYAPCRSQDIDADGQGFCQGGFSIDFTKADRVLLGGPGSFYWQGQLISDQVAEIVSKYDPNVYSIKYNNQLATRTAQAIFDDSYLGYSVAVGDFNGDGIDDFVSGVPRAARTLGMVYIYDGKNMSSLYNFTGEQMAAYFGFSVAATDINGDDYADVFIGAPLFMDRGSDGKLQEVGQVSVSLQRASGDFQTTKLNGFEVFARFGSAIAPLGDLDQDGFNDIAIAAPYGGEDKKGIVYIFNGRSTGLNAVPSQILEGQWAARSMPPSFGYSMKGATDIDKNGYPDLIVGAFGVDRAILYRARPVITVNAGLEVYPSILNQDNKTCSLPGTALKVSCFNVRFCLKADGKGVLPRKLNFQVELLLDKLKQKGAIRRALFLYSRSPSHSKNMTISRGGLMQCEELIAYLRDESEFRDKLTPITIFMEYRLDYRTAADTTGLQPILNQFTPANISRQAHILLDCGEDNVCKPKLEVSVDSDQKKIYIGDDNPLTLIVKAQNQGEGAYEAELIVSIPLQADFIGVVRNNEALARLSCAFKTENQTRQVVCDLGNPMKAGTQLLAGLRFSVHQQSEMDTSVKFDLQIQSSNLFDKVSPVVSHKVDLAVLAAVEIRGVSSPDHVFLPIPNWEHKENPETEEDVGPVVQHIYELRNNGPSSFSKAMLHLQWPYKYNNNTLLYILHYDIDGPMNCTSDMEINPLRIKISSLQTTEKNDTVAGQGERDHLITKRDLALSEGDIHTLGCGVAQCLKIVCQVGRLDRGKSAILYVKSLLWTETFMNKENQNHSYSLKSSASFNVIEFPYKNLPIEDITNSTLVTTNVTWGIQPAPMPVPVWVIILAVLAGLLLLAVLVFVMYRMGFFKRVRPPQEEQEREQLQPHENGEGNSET
human integrin αvβ5, sequence (P18084 24-799): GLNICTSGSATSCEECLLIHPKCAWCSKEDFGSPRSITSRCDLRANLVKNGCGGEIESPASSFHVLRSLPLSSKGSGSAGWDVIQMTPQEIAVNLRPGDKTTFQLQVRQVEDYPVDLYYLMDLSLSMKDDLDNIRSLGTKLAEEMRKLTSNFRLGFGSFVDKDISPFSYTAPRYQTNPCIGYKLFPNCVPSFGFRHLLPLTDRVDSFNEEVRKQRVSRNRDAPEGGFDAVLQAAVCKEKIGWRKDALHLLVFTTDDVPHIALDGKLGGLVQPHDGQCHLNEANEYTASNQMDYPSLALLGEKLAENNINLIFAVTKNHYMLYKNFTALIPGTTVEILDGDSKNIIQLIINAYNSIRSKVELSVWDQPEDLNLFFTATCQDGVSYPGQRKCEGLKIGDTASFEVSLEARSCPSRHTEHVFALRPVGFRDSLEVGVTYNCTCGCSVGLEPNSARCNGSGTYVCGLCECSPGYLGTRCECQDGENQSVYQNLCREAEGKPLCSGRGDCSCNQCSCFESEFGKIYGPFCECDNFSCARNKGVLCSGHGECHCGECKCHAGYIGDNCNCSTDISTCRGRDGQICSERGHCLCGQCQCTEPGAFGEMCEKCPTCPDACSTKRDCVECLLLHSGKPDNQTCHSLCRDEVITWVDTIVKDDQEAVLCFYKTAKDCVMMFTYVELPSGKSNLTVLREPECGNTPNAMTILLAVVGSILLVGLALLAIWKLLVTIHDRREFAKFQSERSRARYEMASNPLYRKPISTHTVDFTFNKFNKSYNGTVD
Protocol: A commercially available CMS (a carboxymethyl dextran introduction type, manufactured by GE Healthcare) sensor chip was set in Biacore 3000, which is a surface plasmon resonance apparatus manufactured by GE Healthcare, the sensor was stabilized at a flow rate of 10 μL/min of a HEPES (4-(2-hydroxyethyl)-1-piperazineethanesulfonic acid) buffer solution (20 mM HEPES-HCl, 150 mM NaCl, pH 7.4) for surface plasmon resonance (SPR), and 70 μL of a mixed aqueous solution of 0.2 M 1-(3-dimethylaminopropyl)-3-ethylcarbodiimide (EDC) and 0.04 M N-hydroxysuccinimide (NHS) was added thereto. Here, the concentration unit M represents mol/L, and the same applies hereinafter. Then, 20 μL of the sample solution of each of the above cyclic peptides diluted to 0.2 g/L with the HEPES buffer solution was supplied to the sensor chip, blocking treatment was subsequently carried out with an ethanolamine solution, and washing was carried out with a sodium hydroxide aqueous solution, whereby immobilization was carried out. However, only for the cyclic peptides 125, 126, and 127, in which the number of lysine residues having an amino group as the immobilizing functional group was zero, the amount of the sample solution to be supplied to the sensor chip was set to 500 μL instead of 20 μL. Further, 70 μL of the mixed aqueous solution of 0.2 M EDC and 0.04 M NHS was added to another flow channel of the same sensor chip without immobilizing the sample, and then blocking treatment and washing treatment were carried out. Hereinafter, the obtained immobilization-treated sensor chip is referred to as an “immobilization-treated sensor chip A”.
After adding human integrin αvβ5 for 10 minutes at 25° C., which was diluted to 30 nM using a HEPES buffer solution to which magnesium chloride was added to 5 mM, in each flow channel of the immobilization-treated sensor chip A prepared in (1) above, the same HEPES buffer solution (containing 5 mM magnesium chloride) was allowed to flow as a running buffer for 30 minutes, and measurement was carried out with Biacore 3000. Then, a regeneration treatment of removing human integrin αvβ5 was carried out by allowing a 0.5 M EDTA aqueous solution to flow through each flow channel for 10 minutes. Further, the above-described measurement process consisting of adding integrin for 10 minutes, allowing a running buffer to flow for 30 minutes, carrying out measurement with Biacore 3000, and carrying out regeneration treatment with 0.5 M EDTA aqueous solution was carried out in the same manner for 100 nM human integrin αvβ5, 300 nM human integrin αvβ5, and 1,000 nM human integrin αvβ5. Dissociation constant between the cyclic peptide and human integrin αvβ5 was calculated from the difference between the value measured by Biacore 3000 in the flow channel immobilized with the cyclic peptide and the value measured by Biacore 3000 in the flow channel unimmobilized with the cyclic peptide, in a case where each concentration of human integrin αvβ5 was allowed to flow, and the integrin binding property was evaluated according to the following evaluation standards. It is preferable that the evaluation result satisfies the evaluation standard A, B, or C.

[2] = Evaluation of molecule stability (alkali treatment, residual rate by LC/MS); assay type: physicochemical; details: 500 μM peptide aqueous solution plus equivalent of 1 M sodium hydroxide, 15° C., 3 hours, LC/MS peak area
Protocol: The molecule stability of the cyclic peptide was evaluated by analyzing the alkali-treated cyclic peptide aqueous solution by liquid chromatography mass spectroscopy (LC/MS).
The alkali treatment was carried out by the following method. A 500 μM cyclic peptide aqueous solution was prepared, an equivalent of 1 M sodium hydroxide aqueous solution was added to this aqueous solution, and the resultant mixture was incubated at 15° C. for 3 hours to obtain an alkali-treated cyclic peptide aqueous solution. The cyclic peptide residual rate was calculated by setting the total area of all peaks of the cyclic peptide before alkali treatment in LC/MS to 100% and determining the proportion of the total area of all peaks in LC/MS of the alkali-treated cyclic peptide aqueous solution, and the molecule stability was evaluated according to the following evaluation standards. It is preferable that the evaluation result satisfies the evaluation standard A, B, or C.
The conditions of the LC/MS used for the evaluation of molecule stability were set as follows. • LC apparatus: Prominence series (pump, column oven, autosampler, detector) (manufactured by Shimadzu Corporation) • MS detector: LC/MS2010EV (manufactured by Shimadzu Corporation) • Column: Cadenza CD-C18, inner diameter 2.0 mm×length 250 mm, particle size: 3 μm (manufactured by Imtakt Corporation) • Eluent A: a solution (pH 3) containing 10 mM ammonium formate as a solute, where the solvent is 100% water. • Eluent B: a solution (pH 3) containing 10 mM ammonium formate as a solute, where the solvent is acetonitrile/water=90/10. • Flow rate: 0.2 mL/min • Injection volume: 4 μL • Gradient: 0% to 30%: Eluent B (0 to 30 minutes), 100%: Eluent B (30 to 40 minutes), 0%: Eluent B (40 to 60 minutes) • Column temperature: 45° C. • Ionization method: electrospray ionization (ESI) positive, ESI negative

Row | SMILES | Kd [1] [nM] | Performance evaluation: Stability (residual rate of cyclic peptide after alkali treatment) [2]
1 | CC[C@H](C)[C@@H]1NC(=O)[C@@H](NC(=O)CNC(=O)[C@H](CCCCN)NC(=O)[C@H](CCCCN)NC(=O)[C@@H](N)CCCCN)CCSCC(=O)NCC[C@@H](C(=O)N[C@@H](C)C(=O)O)NC(=O)[C@H](CCCNC(=N)N)NC(=O)[C@H](Cc2ccccc2)NC(=O)[C@H](CC(N)=O)NC(=O)[C@H](CC(=O)O)NC(=O)CNC(=O)[C@H](CCCNC(=N)N)NC(=O)[C@@H]2CCCN2C1=O [Cyclic peptide 1, KKKG-(Hcy)-IPRGDNFR(Dab(acetyl))A] (H-KKKG[hCys]IPRGDNFR[Dab]A-OH; linker 5-14 via X2) | < 50 | A (The residual rate of the cyclic peptide is 70% or more.)
2 | CC[C@H](C)[C@@H]1NC(=O)[C@@H](NC(=O)[C@H](C)NC(=O)[C@H](CCCCN)NC(=O)[C@H](CCCCN)NC(=O)[C@@H](N)CCCCN)CCSCC(=O)NCC[C@@H](C(=O)N[C@@H](C)C(=O)O)NC(=O)[C@H](CCCNC(=N)N)NC(=O)[C@H](Cc2ccccc2)NC(=O)[C@H](CC(N)=O)NC(=O)[C@H](CC(=O)O)NC(=O)CNC(=O)[C@H](CCCNC(=N)N)NC(=O)[C@@H]2CCCN2C1=O [Cyclic peptide 2, KKKA-(Hcy)-IPRGDNFR(Dab(acetyl))A] (H-KKKA[hCys]IPRGDNFR[Dab]A-OH; linker 5-14 via X2) | < 50 | A (The residual rate of the cyclic peptide is 70% or more.)
3 | CC[C@H](C)[C@@H]1NC(=O)[C@@H](NC(=O)[C@H](CCCCN)NC(=O)[C@H](CCCCN)NC(=O)[C@@H](N)CCCCN)CCSCC(=O)NCC[C@@H](C(=O)N[C@@H](C)C(=O)O)NC(=O)[C@H](CCCNC(=N)N)NC(=O)[C@H](Cc2ccccc2)NC(=O)[C@H](CC(N)=O)NC(=O)[C@H](CC(=O)O)NC(=O)CNC(=O)[C@H](CCCNC(=N)N)NC(=O)[C@@H]2CCCN2C1=O [Cyclic peptide 3, KKK-(Hcy)-IPRGDNFR(Dab(acetyl))A] (H-KKK[hCys]IPRGDNFR[Dab]A-OH; linker 4-13 via X2) | < 50 | A (The residual rate of the cyclic peptide is 70% or more.)
4 | CC[C@H](C)[C@@H]1NC(=O)[C@@H](NC(=O)[C@H](CCCCN)NC(=O)[C@H](CCCCN)NC(=O)[C@@H](N)CCCCN)CCSCC(=O)NCC[C@@H](C(=O)NCC(=O)O)NC(=O)[C@H](CCCNC(=N)N)NC(=O)[C@H](Cc2ccccc2)NC(=O)[C@H](CC(N)=O)NC(=O)[C@H](CC(=O)O)NC(=O)CNC(=O)[C@H](CCCNC(=N)N)NC(=O)[C@@H]2CCCN2C1=O [Cyclic peptide 4, KKK-(Hcy)-IPRGDNFR(Dab(acetyl))G] (H-KKK[hCys]IPRGDNFR[Dab]G-OH; linker 4-13 via X2) | < 50 | A (The residual rate of the cyclic peptide is 70% or more.)
5 | CC[C@H](C)[C@@H]1NC(=O)[C@@H](NC(=O)[C@H](CCCCN)NC(=O)[C@H](CCCCN)NC(=O)[C@@H](N)CCCCN)CCSCC(=O)NCC[C@@H](C(=O)N[C@@H](CC(=O)O)C(=O)O)NC(=O)[C@H](CCCNC(=N)N)NC(=O)[C@H](Cc2ccccc2)NC(=O)[C@H](CC(N)=O)NC(=O)[C@H](CC(=O)O)NC(=O)CNC(=O)[C@H](CCCNC(=N)N)NC(=O)[C@@H]2CCCN2C1=O [Cyclic peptide 5, KKK-(Hcy)-IPRGDNFR(Dab(acetyl))D] (H-KKK[hCys]IPRGDNFR[Dab]D-OH; linker 4-13 via X2) | < 50 | A (The residual rate of the cyclic peptide is 70% or more.)
6 | CC[C@H](C)[C@@H]1NC(=O)[C@@H](NC(=O)CNC(=O)[C@H](CCCCN)NC(=O)[C@H](CCCCN)NC(=O)[C@@H](N)CCCCN)CCSCC(=O)NCC[C@@H](C(=O)N[C@@H](C)C(=O)O)NC(=O)[C@H](Cc2ccccc2)NC(=O)[C@H](CC(N)=O)NC(=O)[C@H](CC(=O)O)NC(=O)CNC(=O)[C@H](CCCNC(=N)N)NC(=O)[C@@H]2CCCN2C1=O [Cyclic peptide 6, KKKG-(Hcy)-IPRGDNF(Dab(acetyl))A] (H-KKKG[hCys]IPRGDNF[Dab]A-OH; linker 5-13 via X2) | 50 to 100 | A (The residual rate of the cyclic peptide is 70% or more.)
7 | CC[C@H](C)[C@@H]1NC(=O)[C@@H](NC(=O)CNC(=O)[C@H](CCCCN)NC(=O)[C@H](CCCCN)NC(=O)[C@@H](N)CCCCN)CCSCC(=O)NCC[C@@H](C(=O)O)NC(=O)[C@H](CCCNC(=N)N)NC(=O)[C@H](Cc2ccccc2)NC(=O)[C@H](CC(N)=O)NC(=O)[C@H](CC(=O)O)NC(=O)CNC(=O)[C@H](CCCNC(=N)N)NC(=O)[C@@H]2CCCN2C1=O [Cyclic peptide 7, KKKG-(Hcy)-IPRGDNFR(Dab(acetyl))] (H-KKKG[hCys]IPRGDNFR[Dab]-OH; linker 5-14 via X2) | < 50 | A (The residual rate of the cyclic peptide is 70% or more.)
8 | C[C@H](NC(=O)[C@@H]1CCNC(=O)CSCC[C@H](NC(=O)CNC(=O)[C@H](CCCCN)NC(=O)[C@H](CCCCN)NC(=O)[C@@H](N)CCCCN)C(=O)N[C@@H](CCc2ccc(O)cc2)C(=O)N2CCC[C@H]2C(=O)N[C@@H](CCCNC(=N)N)C(=O)NCC(=O)N[C@@H](CC(=O)O)C(=O)N[C@@H]([C@@H](C)O)C(=O)N[C@@H](Cc2ccccc2)C(=O)N[C@@H](CCCNC(=N)N)C(=O)N1)C(=O)O [Cyclic peptide 68, KKKG-(Hcy)-(HmY)-PRGDTFR(Dab(acetyl))A] (H-KKKG[hCys][hTyr]PRGDTFR[Dab]A-OH; linker 5-14 via X2) |  | A (The residual rate of the cyclic peptide is 70% or more.)
9 | CC[C@H](C)[C@@H]1NC(=O)[C@@H](NC(=O)CNC(=O)[C@H](CCCCN)NC(=O)[C@H](CCCCN)NC(=O)[C@@H](N)CCCCN)CCSCC(=O)NCC[C@@H](C(=O)N[C@@H](C)C(=O)O)NC(=O)[C@H](CCCNC(=N)N)NC(=O)[C@H](Cc2ccccc2)NC(=O)[C@H](CCO)NC(=O)[C@H](CC(=O)O)NC(=O)CNC(=O)[C@H](CCCNC(=N)N)NC(=O)[C@@H]2CCCN2C1=O [Cyclic peptide 73, KKKG-(Hcy)-IPRGD-(HmS)-FR(Dab(acetyl))A] (H-KKKG[hCys]IPRGD[hSer]FR[Dab]A-OH; linker 5-14 via X2) |  | A (The residual rate of the cyclic peptide is 70% or more.)
